Results published in patent US6881584B1, “Infrared thermography” (SmithKline Beecham Corporation, priority 1998, dated 2005).

Experiments:
HUVEC cells = details: 10 minutes
Experimental: (§1) Heat generation was measured using a Stirling cooled Agema Thermovision 900 Infrared System AB (Marietta, Ga.) equipped with a SW Scanner and 40°×25° lens which detects a 2-5.4 micron spectral response. […] The focal distance was 6 cm. Images were captured using a recurs function set at 16 or an averaging function set at 32. The data was analyzed using OS-9 advanced systems and ERIKA 2.00 software according to the manufacturer's specifications (FLIR Infrared Systems AB, Danderyd, Sweden). Thermography of adipocytes was performed by maintaining the ambient temperature of the cultured cells at 37±0.02° C. using a Queue Systems Inc. (Parkersburg, W.Va.) incubator, model QWJ500SABA. Spectral analysis of yeast was performed at 30±0.02° C. using the same incubator system. After treating the cells with experimental agents (e.g., rotenone etc.), the temperature was equilibrated for 10 minutes in the incubator before measuring real time thermogenesis for all microtiter plate applications. Various color scales in the visible wavelength were used to depict the temperature fluctuations of the recorded images. Although temperature scales are constant, the color scale images are variable and can be adjusted with level and span controls.

tissue vascularization = details: nude mice, vs control injection
Experimental: Nude mice were injected with either VEGF peptide or a control followed by themographic imaging of both injection sites.

C3H10T1/2 adipocytes [1] = assay: Lipolysis in adipocytes treated with β-AR-agonists; type: cell-based; details: Mus musculus, C3H 10T1/2, read-out: EC50 (nM) Lipolysis
Experimental: (§2) Human subcutaneous adipocytes were purchased from Zen-Bio, Inc. (Research Triangle Park, N.C.). C3H10T1/2 clone 8 fibroblasts were differentiated into adipocytes as previously described (Lenhard et al, Biochem. Pharmacol. 54:801-808 (1997), Paulik and Lenhard, Cell Tissue Res. 290:79-87 (1997)). After 7 days in culture, triglyceride accumulation was determined by adding lipoprotein lipase and GPO-Trinder reagent (assay kit 337-B, Sigma Diagnostics, St. Louis, Mo.) to the cells (50 μl/cm^2) and incubating the lysates at 37° C. for 2 hours. The optical density was measured using a spectrophotometer set at a wavelength of 540 nm. Lipolysis was measured as previously described (Lenhard et al, Biochem. Pharmacol. 54:801-808 (1997)).
(§3) As a control, the effects of β-AR-agonists on lipolysis was also measured. […] In general, this expands to measuring thermogenic activity of both catabolic and anabolic mediated-effects of potential drug candidates.

C3H10T1/2 adipocytes [2] = assay: Infrared thermography of thermogenesis in cultured adipocytes (β-AR-agonists); type: cell-based; details: for EC50: Mus musculus
Experimental: as §2, §1
The β3-AR-agonists are candidate therapeutic agents for the treatment of diabetes and obesity. Although, the mechanism of action for these agents is thought to involve increased metabolic rate (Scarpace, Ann. N.Y. Acad. Sci. 813:111-116 (1997)), it has yet to be shown that β-AR-agonists increase heat output by adipocytes. Therefore, it was determined whether infrared imaging could be used to monitor the effects of β-AR-agonists on thermogenesis in cultured adipocytes.
as §3

[3] = target: T1, beta 3 adrenergic receptor (β3AR) (Homo sapiens, UniProt P13945); assay: Infrared thermography of CHO cells overexpressing the β3AR receptor; type: cell-based
T1 construct: expressed in transfected cells; host or cells: Chinese Hamster Ovary (CHO) cells
T1 sequence (P13945 whole entry): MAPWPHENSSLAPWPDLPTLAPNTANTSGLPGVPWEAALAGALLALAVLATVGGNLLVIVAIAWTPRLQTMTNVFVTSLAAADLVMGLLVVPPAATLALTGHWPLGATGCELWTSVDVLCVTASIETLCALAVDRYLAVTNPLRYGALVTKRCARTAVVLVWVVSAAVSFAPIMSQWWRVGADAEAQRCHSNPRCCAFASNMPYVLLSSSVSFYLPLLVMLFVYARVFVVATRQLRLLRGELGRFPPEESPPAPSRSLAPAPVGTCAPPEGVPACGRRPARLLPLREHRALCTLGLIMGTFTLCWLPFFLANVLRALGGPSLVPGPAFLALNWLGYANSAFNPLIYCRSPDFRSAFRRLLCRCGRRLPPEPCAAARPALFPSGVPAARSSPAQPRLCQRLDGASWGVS
Experimental: as §1

hair-loss = assay: Chemotherapy-induced hair-loss by infrared thermography in newborn pups treated in utero; type: in vivo, rat; details: 6 mg/kg
Description: Hair loss can result from undesirable side-effects of various therapies (e.g., radiation treatment of cancer patients, surgery etc.) and can occur naturally with age, whereas surgical or pharmacological intervention can restore hair growth. Since hair provides insulation against heat loss and aids in the maintenance of a constant body temperature, it was of interest to determine if infrared thermography can be used to measure hair loss. The lack of progress in the treatment and prevention of chemotherapy-induced alopecia is in part due to the lack of a reproducible animal model as well as a quantitative method to measure hair-loss. To determine if infrared imaging can be used to quantitatively measure chemotherapy induced hair-loss, newborn rat pups that were treated in utero with the known cancer agent, etoposide, were thermally profiled for hair-loss.

yeast = type: cell-based; details: dose response, relative to untreated cells
Experimental: Heat generation was measured using a Stirling cooled Agema Thermovision 900 Infrared System AB (Marietta, Ga.) equipped with a SW Scanner and 40°×25° lens which detects a 2-5.4 micron spectral response. […] The focal distance was 6 cm. Images were captured using a recurs function set at 16 or an averaging function set at 32. The data was analyzed using OS-9 advanced systems and ERIKA 2.00 software according to the manufacturer's specifications (FLIR Infrared Systems AB, Danderyd, Sweden). […] Spectral analysis of yeast was performed at 30±0.02° C. using the same incubator system. After treating the cells with experimental agents (e.g., rotenone etc.), the temperature was equilibrated for 10 minutes in the incubator before measuring real time thermogenesis for all microtiter plate applications. Various color scales in the visible wavelength were used to depict the temperature fluctuations of the recorded images. Although temperature scales are constant, the color scale images are variable and can be adjusted with level and span controls.

human adipocytes = assay: Infrared thermography of human adipocytes in 96-well plates; type: cell-based; details: dose response, relative to untreated cells
Experimental: Heat generation was measured using a Stirling cooled Agema Thermovision 900 Infrared System AB (Marietta, Ga.) equipped with a SW Scanner and 40°×25° lens which detects a 2-5.4 micron spectral response. […] The focal distance was 6 cm. Images were captured using a recurs function set at 16 or an averaging function set at 32. The data was analyzed using OS-9 advanced systems and ERIKA 2.00 software according to the manufacturer's specifications (FLIR Infrared Systems AB, Danderyd, Sweden). Thermography of adipocytes was performed by maintaining the ambient temperature of the cultured cells at 37±0.02° C. using a Queue Systems Inc. (Parkersburg, W.Va.) incubator, model QWJ500SABA. […] After treating the cells with experimental agents (e.g., rotenone etc.), the temperature was equilibrated for 10 minutes in the incubator before measuring real time thermogenesis for all microtiter plate applications. Various color scales in the visible wavelength were used to depict the temperature fluctuations of the recorded images. Although temperature scales are constant, the color scale images are variable and can be adjusted with level and span controls.

UCP2 = assay: Infrared thermography of yeast expressing UCP2; type: cell-based; details: galactose-induced UCP2
Experimental: Human skeletal muscle cDNA (#7175-1) was purchased from Clontech (Palo Alto, Calif.). UCP2 specific-sequences were PCR amplified from the sample using oligonucleotide primers that matched the 5′ and 3′ ends of a published sequence (GenBank U82819). Vent polymerase was used (New England Biolabs, Beverly, Mass.) in a standard reaction mixture with 2 mM MgSO4 and 5% DMSO. The cycle parameters were 94° C. for 1 min., 55° C. for 1 min., and 72° C. for 1 min., repeated 29 times. The sample was passed over an S-400 spin column (Pharmacia, Piscataway, N.J.) prior to ligation in a vector for transformation of E. coli. The authenticity of the clone was confirmed by DNA sequence analysis. For the experiments in yeast, the UCP2 coding sequence was amplified by PCR using primers with the sequence […] AAGGCCA (SEQ ID NO:1) (sense) and […] (SEQ ID NO:2) (antisense) followed by a second PCR using primers with the sequence […] (SEQ ID NO:3) (sense) and […] (SEQ ID NO:4) (antisense). The PCR product was cloned into pYX233 (R&D Systems) by homologous recombination in yeast strain W303 (a/a homozygous for ade2-1, his3-1, 15 leu2-3, 112, trp1-1, ura3-1). Yeast transformants were selected on BSM-trp agar (Bio 101, Vista, Calif.). The correct UCP2 sequence was verified by sequencing plasmids back-extracted from yeast to E. coli. […]

thoracic area = assay: Infrared thermography of thoracic area of nude mice treated with inhalant; type: in vivo; details: vs vehicle
Experimental: (§4) Male AKR/J, C57BL/6J, and SWR/J mice were purchased from 4-8 weeks of age from Jackson Laboratories (Bar Harbor, Me.). Mice were fed high and low fats diets containing high sucrose as defined by Surwit et al., (Metabolism 44(5):645-651 (1995)). After 14 weeks on these diets, the intrascapular fur was shaved, the animals were dosed (intraperitineal) with 1 mg/kg of BRL37344, and the animals were anesthetized with isofluorane. Nude mice (BALB/C) were 6-8 weeks old and were dosed with inhalant two times before thermal profiling. The Lewis rat strain (200-250 g) were used for both the MED and inflammation experiments. Infrared thermographic images and temperature calculations were recorded using an Agema Thermovision 900 Infrared System.
Furthermore, the bioavailability and bioactivity of inhalants in animals and man is often difficult to measure and quantitate. Assays available for measuring bioavailabilty of inhalants involve measuring the uptake of radiolabeled inhalant in selected tissues (eg. lung). Infrared thermography provides a non-invasive method for measuring the bioavailibilty/bioactivity of inhalant compounds. Thus, infrared thermography was used to measure the thermal activity induced by an inhalant in the thoracic area of nude mice.

genitalia = assay: Thermogenesis in rat genitalia (male erectile dysfunction); type: in vivo; details: rats, 2 hours after PO dosing, 3.0 or 0.3 mg/kg
Experimental: as §4
Male erectile dysfunction (MED) is treatable with drugs that increase blood flow to the genitalia. Increased local thermogenesis is associated with increased local blood flow. One drug that acts in this manner and treats MED is Pinacidil. […] Thus, infrared thermography provides a quantitative and non-invasive method for identifying and evaluating drug candidates for the MED indication as well as identifying candidates that can cause erection as a side effect.

C3H10T1/2 cells = assay: Infrared thermography of heat production in differentiating C3H10T1/2 cells (PPARγ agonists); type: cell-based; details: in the presence of insulin and 9-cis retinoic acid (FIG. 7), read-out: EC50(μM), thermogenesis and lipogenesis assays
Experimental: as §2
Heat generation was measured using a Stirling cooled Agema Thermovision 900 Infrared System AB (Marietta, Ga.) equipped with a SW Scanner and 40°×25° lens which detects a 2-5.4 micron spectral response. […] The focal distance was 6 cm. Images were captured using a recurs function set at 16 or an averaging function set at 32. The data was analyzed using OS-9 advanced systems and ERIKA 2.00 software according to the manufacturer's specifications (FLIR Infrared Systems AB, Danderyd, Sweden). […] Various color scales in the visible wavelength were used to depict the temperature fluctuations of the recorded images. […]

[4] = test system: intrascapular brown adipose tissue (IBAT); assay: IBAT thermogenesis in ob/ob mice treated with PPARγ agonist; type: in vivo; details: two weeks treatment, compared to control animals
Experimental: as §1

liver = type: in vivo; details: ob/ob mice, 0.1-1 mg/kg i.p., 90 minutes, dose-dependent
Experimental: FIG. 29. Liver thermogenesis in ob/ob mice 90 minutes after treatment with lipopolysaccharide (LPS) detected by IR thermography. Male ob/ob mice were housed and maintained as described in FIG. 1. Mice were dosed at 0.0, 0.1, 0.3, or 1 mg/kg LPS in water vehicle (0.5 mL i.p.; n=10 per dose) and anesthetized using isoflurane as described above 90 minutes after treatment. The abdomens of the anesthetized mice were surgically opened to expose the liver and Bioclusive adhesive was placed over the entire exposed area. IR images of the liver region were acquired and analyzed as detailed in FIG. 28. […] Quantification of the IR signal in the liver region is shown in the bottom panel. Data are means±SEM for n=10 animals per group. Asterisks (*) denote statistical differences from control (p<0.05, ANOVA with Student-Newman-Keuls post hoc tests).
Use of IR transparent adhesive to image liver thermogenesis in vivo. […] Indeed, temperature measurements obtained by IR thermography correlated well with liver toxicity measured as AST release (r=0.99). In addition, temperature changes measured using IR thermography correlated with alanine aminotransferase (ALT) release, another marker of liver injury (r=0.76, data not shown).

With VEGF as the compound, how does the “thermogenesis in HUVEC cells” value (HUVEC cells) read?
The value was “induced thermogenesis”.

And the “thermogenesis in local area of injection” value (tissue vascularization)?
Its value is “enhanced thermogenesis”.

For `CC(C)NCC(O)c1ccc(O)c(O)c1` (centres unmarked) [Isoproterenol], which EC50 (C3H10T1/2 adipocytes [1]) is on record?
The EC50 was 27.1 nM.

And the stimulation of thermogenesis (C3H10T1/2 adipocytes [2]; C3H10T1/2 adipocytes)?
Its stimulation of thermogenesis is “stimulated”.

What about the EC50 (C3H10T1/2 adipocytes [2]; C3H 10T1/2, adipocytes, infrared thermography, dose response, read-out: EC50 (nM) Thermogenesis) of the same compound?
The EC50 was 28 nM.

And the “thermogenic response of CHO cells” value [3]?
Its value is “responsive in a dose-dependent manner”.

With `COc1cc([C@@H]2c3cc4c(cc3[C@@H](O[C@@H]3O[C@@H]5CO[C@@H](C)O[C@H]5[C@H](O)[C@H]3O)[C@H]3COC(=O)[C@H]23)OCO4)cc(OC)c1O` [etoposide] as the compound, how does the “thermal activity as a result of hair-loss” value (hair-loss) read?
Its value is “increased thermal activity in both the fronts and backs as a result of hair-loss”.

For `C=C(C)[C@H]1Cc2c(ccc3c2O[C@@H]2COc4cc(OC)c(OC)cc4[C@@H]2C3=O)O1` [Rotenone], which EC50 (C3H10T1/2 adipocytes [2]; C3H 10T1/2, read-out: EC50 (nM) Thermogenesis) is on record?
The EC50 was 8.5 nM.

What about the “thermogenesis of cells treated with β-AR-agonists” value (C3H10T1/2 adipocytes [2]; cells treated with 50 nM of the various β-AR-agonists) of the same compound?
Its value is “inhibited thermogenesis”.

What about the thermogenesis in yeast (yeast) of the same compound?
The thermogenesis in yeast was “inhibited thermogenesis”.

What about the “thermogenesis in human adipocytes” value (human adipocytes) of the same compound?
The value was “inhibited thermogenesis”.

And the UCP2-mediated thermogenesis (UCP2)?
Its UCP2-mediated thermogenesis is “inhibited”.

`CC(C)(C)NCC(O)c1ccc(O)c(CO)c1` (centres unmarked) [Albuterol] was tested. Which torso area temperature (thoracic area) did it give?
Its torso area temperature is “torso temperature increases after 2.5 minutes”.

How did the “thermogenesis in the genitalia” value (genitalia) turn out when `CC(N/C(=N\C#N)Nc1ccncc1)C(C)(C)C` (centres unmarked) [Pinacidil] was run?
Its value is “increase in thermogenesis”.

How did the EC50 (C3H10T1/2 cells) turn out when `CN(CCOc1ccc(C[C@H](Nc2ccccc2C(=O)c2ccccc2)C(=O)O)cc1)c1ccccn1` [GW1929] was run?
The EC50 was 0.052 µM.

What about the IBAT thermogenesis [4] of the same compound?
Its IBAT thermogenesis is “reduction in IBAT thermogenesis”.

How did the liver thermogenesis (liver) turn out when lipopolysaccharide [LPS] was run?
The liver thermogenesis was “thermogenesis is increased”.
